Data reported in publication PMC9228535, “Antistaphylococcal Activities and ADME-Related Properties of Chlorinated Arylcarbamoylnaphthalenylcarbamates” (Pharmaceuticals, 2022).
Converted amounts (≈) assume the structure as drawn. Like-named read-outs stand apart in the source and are kept apart here.

What was measured:
[1] = test system: THP-1 cells; experiment: In vitro cytotoxicity assay (WST-1); type: cell-based; conditions: Homo sapiens; THP-1, 24 h, ± SD, n = 6; read-out: IC50
Protocol: Preliminary in vitro cytotoxicity screening of the investigated compounds was performed using human monocytic leukemia THP-1 cells, see Table 2. The ability to inhibit the human cancer cell viability (IC50) of the compounds was compared to camptothecin toxicity (0.16 ± 0.07 μM). […] However, these values are up to two orders of magnitude higher than their significant antistaphyloccocal concentrations. This fact is also taken into account in the calculated selectivity index (SI), Table 2, where for only three compounds the SI is <20, while for the rest of the agents SI is >20, and for some derivatives even 100 and more. Thus, based on all these observations, it can be concluded that all the tested derivatives can be considered as in vitro non-toxic compounds for the subsequent design of new therapeutic agents.
The human THP-1 cell line (European Collection of Cell Cultures, Salisbury, UK) was cultured in RPMI 1640 medium supplemented with 10% fetal bovine serum, 2% L-glutamine, 1% penicillin, and streptomycin at 37 °C with 5% CO2. Cells were passaged at approximately 1-week intervals. All the tested compounds were prepared and dissolved as mentioned in our previous work.

[2] = test system: MRSA SA 630; experiment: MIC, microtitration broth method; type: cell-based; conditions: Staphylococcus aureus, 24 h
Protocol: (§1) All the investigated compounds were screened for in vitro antibacterial activity against the reference and quality control strain Staphylococcus aureus ATCC 29213 and clinical isolates of methicillin-resistant S. aureus (MRSA) 63718, SA 630, and SA 3202 [14]. Activities are expressed as the minimum inhibitory concentrations (MICs), see Table 2. In addition to the MICs, the minimum bactericidal concentrations (MBCs) were also determined.
(§2) In vitro antibacterial activity of the synthesized compounds was evaluated against representatives of multidrug-resistant bacteria, three clinical isolates of methicillin-resistant S. aureus: clinical isolate of animal origin, MRSA 63718 (Department of Infectious Diseases and Microbiology, Faculty of Veterinary Medicine, University of Veterinary Sciences Brno, Czech Republic), carrying the mecA gene; and MRSA SA 630 [46] and MRSA SA 3202 [46] (National Institute of Public Health, Prague, Czech Republic), both of human origin. Suspected colonies were confirmed by PCR; a 108bp fragment specific for S. aureus was detected. All isolates were tested for the presence of the mecA gene encoding methicillin resistance. […] Vancomycin-susceptible methicillin-susceptible S. aureus (VS-MSSA) ATCC 29213, obtained from the American Type Culture Collection, was used as the reference and quality control strain. Enterococcus faecalis ATCC 29212 was obtained from the American Type Culture Collection and used as the reference and quality control strain.
(§3) The minimum inhibitory concentrations (MICs) were evaluated by the microtitration broth method according to the CLSI [64, 65] with some modifications. The compounds were dissolved in DMSO (Sigma, St. Louis, MO, USA) to get a concentration […] and diluted in a microtitration plate in an appropriate medium, namely, Cation Adjusted Mueller–Hinton (CaMH, Oxoid, Basingstoke, UK) for staphylococci (S. aureus ATCC 29213, clinical isolates of MRSA 63718, SA 630, and SA 3202) and brain heart infusion (BHI, Oxoid) for E. faecalis ATCC 29212, to reach the final concentration of 256-0.125 µg/mL. The plate was inoculated by the tested microorganisms. The final concentration of bacterial cells was 10^5 for bacteria. Ampicillin (Sigma) was used as reference drugs. A drug-free control and a sterility control were included. The plates were incubated for 24 h at 37 °C for staphylococci and E. faecalis ATCC 29212 (stability evaluation of the carbamates, see Supplementary materials, Table S1). […] The experiments were repeated three times.

[3] = test system: MRSA SA 3202; experiment: MIC, microtitration broth method; type: cell-based; conditions: Staphylococcus aureus, 24 h
Protocol: as §1, §2, §3

[4] = test system: Staphylococcus aureus ATCC 29213; experiment: MIC, microtitration broth method; type: cell-based; conditions: ATCC29213, SA = S. aureus ATCC 29213, 24 h, read-out: MIC
Protocol: as §1, §2, §3

[5] = test system: MRSA 63718; experiment: MIC, microtitration broth method; type: cell-based; conditions: Staphylococcus aureus, MRSA, 24 h
Protocol: as §1, §2, §3

[6] = test system: Enterococcus faecalis ATCC 29212; experiment: MIC, microtitration broth method; type: cell-based; conditions: ATCC29212; EF = Enterococcus faecalis, 24 h; read-out: MIC
Protocol: as §2, §3

[7] = Lipophilicity determination by RP-HPLC (log k, log D); type: physicochemical; conditions: for log D6.5 / log D7.4 / log k: RP-HPLC; for log D6.5: MeOH 72%/acetate buffered saline pH 6.5; for log D7.4: MeOH 72%/acetate buffered saline pH 7.4; for log k: MeOH 72%/water 28%
Protocol: Lipophilicity was measured by reversed-phase high performance liquid chromatography (RP-HPLC) under isocratic conditions with methanol as the organic modifier in the aqueous mobile phase and the logarithm of the capacity factor k was calculated, which is used as the lipophilicity index converted to the log P scale. In addition to the log k values, the logarithm of the distribution coefficient DpH at pH 6.5 and 7.4 was determined to clarify the behavior of the compounds under physiological conditions and possible ionization. Instead of water, a buffer of suitable pH was used as part of the mobile phase. In addition to the above-mentioned experimental methods, commercially available ChemBioDraw Ultra 13.0 and ACD/Percepta ver. […] In addition to lipophilicity, other parameters discussed in Ro5, such as molecular weight, number of H-bond donors/acceptors, as well as parameters not reported in Ro5, but characterizing the physicochemical properties of the prepared molecules, such as number of rotatable bonds, were predicted using ACD/Percepta. Moreover, for each R substituent, bulkiness expressed as molar volume (MV [cm^3]), a parameter describing the tail length/branching of each carbamates, was calculated.
A HPLC separation module Agilent 1200 Series (Agilent Technologies, Santa Clara, CA, USA) equipped with a Dual Absorbance Detector (DAD SL G1315C, Agilent Technologies) was used. A chromatographic column Symmetry® C18 5 μm, 4.6 × 250 mm, Part No. W21751W016 (Waters Corp, Milford, MA, USA) was used. The HPLC separation process was monitored by ChemStation for LC 3D systems (Agilent Technologies). […] The total flow of the column was 1.0 mL/min, injection 20 μL, column temperature 40 °C, and sample temperature 10 °C. The detection wavelength of 210 nm was chosen. A KI methanolic solution was used for the determination of the dead times (tD). Retention times (tR) were measured in minutes. The capacity factors k were calculated according to the formula k = (tR − tD)/tD, where tR is the retention time of the solute, and tD is the dead time obtained using an unretained analyte. The distribution coefficients DpH were calculated according to the formula DpH = (tR − tD)/tD. Each experiment was repeated three times.

[8] = test system: MRSA SA 630; experiment: MBC, agar aliquot subculture method; type: cell-based; conditions: Staphylococcus aureus
Protocol: as §1
(§4) For the S. aureus and MRSA isolates, the agar aliquot subculture method was used as a test for bactericidal agents. After the MIC value determination, the inoculum was transferred to Mueller–Hinton (Oxoid) agar using a multipoint inoculator. The plates were incubated in a thermostat at 37 °C for 24 h. The lowest concentration of test compound at which ≤5 colonies were obtained was then evaluated as MBC, corresponding to a 99.9% decrease in CFU relative to the original inoculum.

[9] = test system: MRSA SA 3202; experiment: MBC, agar aliquot subculture method; type: cell-based; conditions: Staphylococcus aureus
Protocol: as §1, §4

[10] = test system: Staphylococcus aureus ATCC 29213; experiment: MBC, agar aliquot subculture method; type: cell-based; conditions: ATCC29213, SA = S. aureus ATCC 29213, read-out: MBC
Protocol: as §1, §4

[11] = test system: MRSA 63718; experiment: MBC, agar aliquot subculture method; type: cell-based; conditions: Staphylococcus aureus, MRSA
Protocol: as §1, §4

[12] = test system: MRSA 63718; set-up: method as in PMID 25692135; conditions: cited from earlier work

| SMILES | IC50 [1] [µM] | MIC [2] [µM] | MIC [3] [µM] | MIC [4] [µM] | MIC [5] [µM] | MIC [6] [µM] | log D6.5 [7] | log D7.4 [7] | log k [7] | MBC [8] [µM] | MBC [9] [µM] | MBC [10] [µM] | MBC [11] [µM] | MIC [12] [µg/mL] | lipophilicity (experimental log k/log D, approximate) [7] | lipophilicity (experimental log k/log D, approximate) ([7]; listed as 15) |
| --- | --- | --- | --- | --- | --- | --- | --- | --- | --- | --- | --- | --- | --- | --- | --- | --- |
| O=C(NCCc1ccccc1)Oc1c(C(=O)Nc2cc(Cl)c(Cl)cc2Cl)ccc2ccccc12 [Compound 13, 2-[N-(2,4,5-Trichlorophenyl)carbamoyl]naphthalen-1-yl 2-phenylethyl carbamate] | 2.79 ± 0.28 | 0.062 (≈ 0.0319 µg/mL) | 0.123 (≈ 0.0632 µg/mL) | 0.062 (≈ 0.0319 µg/mL) | 0.123 (≈ 0.0632 µg/mL) | 125 (≈ 64.2 µg/mL) | 1.2473 | 1.2470 | 1.2450 | 0.973 (≈ 0.5 µg/mL) | 0.243 (≈ 0.125 µg/mL) | 0.062 (≈ 0.0319 µg/mL) | 0.123 (≈ 0.0632 µg/mL) | – | – | – |
| CN[C@H](CC(C)C)C(=O)N[C@H]1C(=O)N[C@@H](CC(N)=O)C(=O)N[C@H]2C(=O)N[C@H]3C(=O)N[C@H](C(=O)N[C@H](C(=O)O)c4cc(O)cc(O)c4-c4cc3ccc4O)[C@H](O)c3ccc(c(Cl)c3)Oc3cc2cc(c3O[C@@H]2O[C@H](CO)[C@@H](O)[C@H](O)[C@H]2O[C@H]2C[C@](C)(N)[C@H](O)[C@H](C)O2)Oc2ccc(cc2Cl)[C@H]1O [vancomycin] | – | – | – | – | – | – | – | – | – | – | – | – | – | 2 (≈ 1.38 µM) | – | – |
| O=C(NCCCCc1ccccc1)Oc1c(C(=O)Nc2cc(Cl)c(Cl)cc2Cl)ccc2ccccc12 [Compound 14, 2-[N-(2,4,5-Trichlorophenyl)carbamoyl]naphthalen-1-yl 4-phenylbutyl carbamate] | 2.73 ± 0.37 | 0.116 (≈ 0.0629 µg/mL) | 0.231 (≈ 0.125 µg/mL) | 0.116 (≈ 0.0629 µg/mL) | 0.231 (≈ 0.125 µg/mL) | 118 (≈ 63.9 µg/mL) | 1.5193 | 1.5191 | 1.5167 | 0.461 (≈ 0.25 µg/mL) | 0.461 (≈ 0.25 µg/mL) | 0.116 (≈ 0.0629 µg/mL) | 0.231 (≈ 0.125 µg/mL) | – | ca. 1.25 | ca. 1.52 |
| CC(C)NC(=O)Oc1c(C(=O)Nc2cc(Cl)c(Cl)cc2Cl)ccc2ccccc12 [Compound 9, 2-[N-(2,4,5-Trichlorophenyl)carbamoyl]naphthalen-1-yl isopropyl carbamate] | 3.26 ± 0.08 | 0.035 (≈ 0.0158 µg/mL) | 0.277 (≈ 0.125 µg/mL) | 0.018 (≈ 0.00813 µg/mL) | 0.139 (≈ 0.0628 µg/mL) | 142 (≈ 64.1 µg/mL) | 0.9579 | 1.0468 | 0.9526 | 0.277 (≈ 0.125 µg/mL) | 0.277 (≈ 0.125 µg/mL) | 0.018 (≈ 0.00813 µg/mL) | 0.139 (≈ 0.0628 µg/mL) | – | – | – |
